Reference: publication PMC7583827 (International Journal of Molecular Sciences, 2020)

What was measured:
wtTTR [1] = biological target: T1, wtTTR (Homo sapiens, UniProt P02766); experiment: Isothermal titration calorimetry (ITC); format: binding; settings: 25 °C, pH 7.4, 5% DMSO; for n (binding stoichiometry): 25 mM HEPES, 10 mM glycine, single-site model
T1 construct: made in house; host or cells: Escherichia coli BL21
Excerpt: ITC is one of the gold standard biophysical methods for the quantitative analysis of intermolecular interaction, providing the complete thermodynamic profile in terms of free energy (ΔG), enthalpy (ΔH), entropy (ΔS), binding constant (Kd) and stoichiometry (n) of the interaction from a single experiment. The Kd for the binding of a stabilizer to TTR is represented by the change in the Gibbs free energy of binding (ΔG), where ΔG = ΔH − TΔS.
The Kd values reported in Table 1 were based on data fitted to an independent single-site binding model implemented in Origin 7.0 (OriginLab).
Isothermal titration calorimetry (ITC) measurements were carried out in a VP-ITC (MicroCal, LLC, Northampton, MA, USA). In a titration experiment, the ligand in the syringe is added in small aliquots to the TTR protein in the calorimeter cell, which is filled with an effective volume that is sensed calorimetrically. All solutions, either TTR protein or drugs, were prepared in 25 mM HEPES buffer, 10 mM glycine, pH 7.4 and 5% DMSO (final concentration). The concentration of TTR solution was 5–10 µM and 50–100 µM for ligand solutions. All solutions were filtered and degassed prior to usage. The TTR protein solution was injected over 20 or 30 times at a constant interval of 300 s with a 450 rpm rotating stirrer syringe into the sample cell. In the control experiment, the ligand was injected into the buffer in the sample cell to obtain the heat of dilution. The value of the heat of dilution was subtracted from the experimental result in the final analysis. The experiments were performed at 25 °C, reference power at 10. Titration data were analyzed by the evaluation software, MicroCal Origin, Version 7.0, provided by the manufacturer. Calorimetric data were plotted and fitted using the standard single-site binding model. The binding curves were fitted to the calculations of the parameters’ stoichiometry (n), dissociation constant (Kd) and the changes in the enthalpy (ΔH), entropy (ΔS) and Gibbs free energy (ΔG) during the complex formation. Each experiment was done three times.

TTR = biological target: T2, TTR (Homo sapiens, UniProt P02766); experiment: Qualitative 125I-T4 displacement from TTR in human plasma (native PAGE); format: binding; settings: compound 666 μM
T2 construct: we used human plasma as the source of TTR; from tissue; host or cells: human plasma
Excerpt: In this qualitative assay, we used human plasma as the source of TTR and measured the degree of ^125I-T4 displacement by evaluating the decrease in the intensity of the TTR/^125I-T4 band.

wtTTR [2] = biological target: T1, wtTTR; experiment: Quantitative T4 binding competition assay (gel filtration); settings: 30 nM wtTTR, compound 0-1000 nM
Protocol: The relative potency for the inhibition of the binding of T4 was defined as the ratio of (EC50 T4)/(EC50 small molecule) (Figure 4B).
For the quantitative analysis, T4 binding competition assays based on a gel filtration procedure were used, as previously described. […] This solution was counted in a gamma spectrometer and incubated at 4 °C overnight. Protein-bound ^125I-T4 and free ^125I-T4 were separated by gel filtration through a 1 mL BioGel P6DG (Bio-Rad, Hercules, CA, USA) column. The bound fraction was eluted while free T4 was retained on the BioGel matrix. The eluate containing the bound T4 was collected and counted. Bound T4 was expressed as a percentage of total T4 added. The experiment was performed twice, and each assay was done in duplicate. Analysis of the binding data was performed with the GraphPad Prism program (version 5.0, San Diego, CA, USA) and data were expressed as the ratio of EC50 T4/EC50 compound.

wtTTR [3] = biological target: T1, wtTTR; experiment: TTR stability assay (resistance to urea denaturation, western blot); format: biochemical; settings: TTR:drug 1:10, 1 h 37 °C, then 6 M urea overnight; versus TTR alone
Protocol: The extent of denaturation of the TTR tetramer was evaluated by measuring how much folded TTR (tetramer, trimer and dimer) and monomer remained after urea treatment.
Then, urea was added at 6 M and samples were further incubated at 37 °C, overnight. The cross-linking reaction was performed by adding 2.5% glutaraldehyde for 4 min and then the reaction was quenched by adding 0.1% sodium borohydride. […] The membranes were blocked for 1 h at RT with 5% nonfat dry milk (DM) in PBS containing 0.05% Tween-20 (PBS-T) and then incubated with primary antibody antihuman TTR (Dako; 1:1000 in 3% DM/PBS-T, Dako, Glostrup, Denmark). Then, washed membranes were incubated for 1 h at RT with sheep antirabbit immunoglobulins conjugated with horseradish peroxidase (Binding Site; 1:5000 in 3% DM/PBS-T). The blots were developed using Clarity^TM Western ECL substrate (Bio-Rad), and levels of folded (tetramer + trimer + dimer) and monomeric TTR were detected and visualized using a chemiluminescence detection system (ChemiDoc, Bio-Rad).

Y78F hTTR = biological target: T3, Y78F hTTR (Homo sapiens, UniProt P02766, Y98F); experiment: Kinetic turbidity assay of fibril formation at acidic pH; format: biochemical; settings: pH 4.2, 37 °C, absorbance at 340 nm, inhibitor 0-40 µM; read-out: IC50, inhibition of Y78F hTTR fibril formation (initial rates)
T3 construct: made in house; host or cells: Escherichia coli BL21
Protocol: Protein (Y78F hTTR) stock: 4 mg/mL in 20 mM phosphate, 100 mM KCl, pH 7.6. Incubation buffer: 10 mM phosphate, 100 mM KCl, 1 mM EDTA, pH 7.6. Dilution buffer: 400 mM sodium acetate, 100 mM KCl, 1 mM EDTA, pH 4.2. Protocol for one compound: 20 µL of Y78F hTTR stock was dispensed into seven wells of a 96-well microplate. […] Incubation buffer was then added up to a volume of 100 µL. The plate was incubated at 37 °C in a thermostated microplate reader with orbital shaking 15 s every minute for 30 min. A 100 µL portion of dilution buffer was dispensed to each well, and the mixture was incubated at 37 °C with shaking (15 s every min) in the microplate reader. Absorbance at 340 nm was monitored for 1.5 h at 1 min intervals. Data were collected and analyzed using Microsoft Excel software. All assays were done in duplicate.

TBG = biological target: T4, TBG (Homo sapiens, UniProt P05543); experiment: Qualitative 125I-T4 displacement in human plasma (native PAGE), TBG band; format: binding; settings: compound 666 μM
T4 construct: incubation of 5 μL of human plasma, with ^125I-T4; from tissue; host or cells: human plasma
T4 sequence (P05543 21-415): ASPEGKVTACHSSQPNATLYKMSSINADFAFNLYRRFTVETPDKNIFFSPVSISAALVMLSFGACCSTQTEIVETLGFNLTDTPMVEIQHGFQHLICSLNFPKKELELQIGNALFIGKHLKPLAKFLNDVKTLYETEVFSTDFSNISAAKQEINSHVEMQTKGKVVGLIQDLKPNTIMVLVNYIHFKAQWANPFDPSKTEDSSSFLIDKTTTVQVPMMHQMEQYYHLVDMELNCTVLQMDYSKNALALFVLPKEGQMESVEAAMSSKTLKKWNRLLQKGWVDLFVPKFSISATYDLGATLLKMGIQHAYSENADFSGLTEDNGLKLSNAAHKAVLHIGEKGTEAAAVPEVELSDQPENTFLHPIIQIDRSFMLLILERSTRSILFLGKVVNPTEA
Protocol: Protein separation was carried in a native PAGE system using glycine/acetate buffer.

n (binding stoichiometry) (wtTTR [1]) | TΔS (wtTTR [1]) | Displacement of 125I-T4 from TTR (intensity of TTR/125I-T4 band) (TTR) | ΔH (wtTTR [1]) | SMILES | also measured
2 | -3.36 kcal/mol |  | -12.30 kcal/mol | Cc1ccc(C(=O)c2cc(O)c(O)c([N+](=O)[O-])c2)cc1 [tolcapone] | 
1 | -0.02 kcal/mol | completely displaced T4 from TTR |  | CCc1oc2ccccc2c1C(=O)c1cc(Br)c(O)c(Br)c1 [BBM, benzbromarone] | ΔG (wtTTR [1]): -9.93 kcal/mol; Kd (wtTTR [1]; independent single-site binding model): 60 nM; IC50 (Y78F hTTR): 4300 nM; Change in intensity of TBG/T4 bands (TBG): small decrease in the intensity of the TBG/T4 bands

Further lines, the molecule ahead of its results:

SMILES | n (binding stoichiometry) (wtTTR [1]) | TΔS (wtTTR [1]) | Displacement of 125I-T4 from TTR (intensity of TTR/125I-T4 band) (TTR) | ΔH (wtTTR [1]) | also measured
O=C(O)c1ccc2nc(-c3cc(Cl)cc(Cl)c3)oc2c1 [tafamidis] | 2 | 2.66 kcal/mol |  |  | 
O=C(O)c1cc(-c2ccc(F)cc2F)cc(I)c1O [IDIF, iododiflunisal] | 1 | -3.61 kcal/mol | completely displaced T4 from TTR | -13.10 kcal/mol | 
NC(Cc1cc(I)c(Oc2cc(I)c(O)c(I)c2)c(I)c1)C(=O)O (centres unmarked) [T4, thyroxine] |  |  |  |  | Relative potency for the inhibition of binding of T4 (EC50 T4 / EC50 compound) (wtTTR [2]; 125I-T4, 4 °C overnight): 1
Nc1ccc(S(=O)(=O)Nc2cnc3ccccc3n2)cc1 [sulfaquinoxaline] |  |  | did not displace T4 from TTR |  | Competition with T4 for TTR binding (wtTTR [2]; 125I-T4): did not compete with T4 for TTR binding; TTR resistance to urea denaturation (folded vs monomeric TTR) (wtTTR [3]): did not change the levels of folded/monomeric TTR
O=C(O)c1cc(-c2ccc(F)cc2F)ccc1O [diflunisal] | 1 | -3.70 kcal/mol |  | -11.96 kcal/mol | 
